Where a name gives a salt, the structure may show the parent alone.
Legend:
Acetylcholinesterase = target: T1, Acetylcholinesterase (Rattus norvegicus, UniProt P37136); experiment: cholinesterase inhibitory activity using (acetyl-[^3 H])-acetylcholine, S1 fraction of rat cerebral cortex homogenate; assay type: biochemical, male Wistar rat; conditions: 30 min incubation
T1 construct: Using the S1 fraction of a male Wistar rat cerebral cortex homogenate as a source of cholinesterase; from tissue; host or cells: male Wistar rat cerebral cortex homogenate, S1 fraction
Method: The cholinesterase inhibitory activity of the compound of the present invention was tested, using (acetyl-[^3 H])-acetylcholine. Using the S1 fraction of a male Wistar rat cerebral cortex homogenate as a source of cholinesterase, (acetyl-[^3 H])-acetylcholine, as a substrate, and the test compound, as a sample, were incubated for 30 minutes. After the reaction was terminated, a toluene scintillator was added and the reaction mixture was shaken to migrate the [^3 H]-acetic acid resulting from the reaction to the toluene layer, where radioactivity was counted using a liquid scintillation counter to determine the cholinesterase inhibitory activity.
The sample's cholinesterase inhibitory activity was expressed by 50% inhibitory concentration (IC50).

[1] = test system: [^3 H]-norepinephirine(NE) uptake; experiment: monoamine uptake inhibition, [^3 H]-norepinephirine (NE), crude synaptosomal preparations of cerebral cortex and hippocampus; assay type: biochemical; conditions: [^3 H]-NE 11 nM; 37° C; rat synaptosomes; read-out: Monoamine Reuptake Inhibitory Activity IC50, NE
Method: (§1) Effects of the compound of this invention on monoamine uptake were investigated using [^3 H]-norepinephirine(NE) and [3H]-serotonin (5-HT). Rats were sacrificed by decapitation. The cerebral cortex and hippocampus were removed and homogenized in 10-15 volumes (W/V) of an ice-cold medium containing 0.32M sucrose. Crude synaptosomal preparations (P2) were isolated after differential centrifugation at 1000×g for 10 min and 20,000×g for 30 min at 4° C. Synaptosomal membranes were suspended in Krebs-Ringer bicarbonate (KRB) solution (116 mM NaCl, 4.8 mM KCl, 1.3 mM CaCl2, 1.2 mM MgSO4, 1.2 mM NaH2 PO4, 25 mM NaHCO3, 0.1 mM EDTA-2Na, 11.1 mM D-glucose, 0.11 mM L-ascorbic acid, 0.01 mM pargyline). Synaptosomal membrane suspension (900 μl) was preincubated with the test compound dissolved in DMSO solution at 37° C. for 5 min. The reaction was initiated by addition of 100 μl of [^3 H]-NE (11 nM in final concentration) or [^3 H]-HT (10 nM in final concentration). Five minutes later, the reaction was stopped by the addition of 4 ml of ice-cold KRB and the reaction mixture was filtered through Whatman CF/B. Filters were washed twice with 4 ml of KRB and the radioactivity bound was counted with liquid scintillant. Imipramine was used as positive control.

[2] = test system: [3H]-serotonin (5-HT) uptake; experiment: monoamine uptake inhibition, [3H]-serotonin (5-HT), crude synaptosomal preparations of cerebral cortex and hippocampus; assay type: biochemical; conditions: [^3 H]-HT 10 nM; 37° C; rat synaptosomes; read-out: Monoamine Reuptake Inhibitory Activity IC50, 5-HT
Method: as §1

T1 sequence (P37136 32-614): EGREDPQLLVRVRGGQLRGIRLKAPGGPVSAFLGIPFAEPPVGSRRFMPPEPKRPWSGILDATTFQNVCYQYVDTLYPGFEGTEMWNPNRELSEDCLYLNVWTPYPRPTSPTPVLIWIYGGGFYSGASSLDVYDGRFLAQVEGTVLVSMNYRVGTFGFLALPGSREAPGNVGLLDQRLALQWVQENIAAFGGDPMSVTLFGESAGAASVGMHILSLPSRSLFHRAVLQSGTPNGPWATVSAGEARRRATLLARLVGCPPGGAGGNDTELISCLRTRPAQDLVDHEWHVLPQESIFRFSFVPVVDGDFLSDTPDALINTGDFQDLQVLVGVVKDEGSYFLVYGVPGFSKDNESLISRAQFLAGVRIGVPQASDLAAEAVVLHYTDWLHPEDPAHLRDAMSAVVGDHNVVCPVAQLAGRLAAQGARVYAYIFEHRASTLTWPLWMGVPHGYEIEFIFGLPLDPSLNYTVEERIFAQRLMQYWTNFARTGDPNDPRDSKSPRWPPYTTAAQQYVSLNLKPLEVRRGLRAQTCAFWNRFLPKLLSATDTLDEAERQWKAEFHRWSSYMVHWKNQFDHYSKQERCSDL

Row | SMILES | IC50 (Acetylcholinesterase) | IC50 [1] | IC50 [2]
1 | CN1CC2CCCc3c(C(=O)CCC4CCN(Cc5ccccc5)CC4)ccc1c32 (stereo not drawn) [16-1] | 154 nM |  | 
2 | O=C(CCN1CCN(Cc2ccccc2)CC1)c1cc2c3c(c1)CCN3C(=O)CC2 [17-1] | 3 nM |  | 
3 | O=C(CCN1CCN(Cc2ccccc2)CC1)c1cc2c3c(c1)CC(=O)N3CCC2 [17-2] | 7.6 nM |  | 
4 | O=C(CCN1CCN(Cc2ccccc2)CC1)c1cc2c3c(c1)CC(=O)N3CCCC2 [17-3] | 17.2 nM |  | 
5 | CC1CC(=O)N2CCc3cc(C(=O)CCN4CCN(Cc5ccccc5)CC4)cc1c32 (stereo not drawn) [17-4] | 9.5 nM |  | 
6 | O=C(CCN1CCN(Cc2ccccc2)CC1)c1cc2c3c(c1)CCC(=O)N3CCC2 [17-6] | 15.1 nM |  | 
7 | O=CN1Cc2cc(C(=O)CCN3CCN(Cc4ccccc4)CC3)ccc2Cc2ccccc21 [17-7] | 33 nM |  | 
8 | O=CN1Cc2cc(C(=O)CCN3CCN(Cc4ccccc4)CC3)ccc2Oc2ccccc21 [17-8] | 47 nM |  | 
9 | O=CN1Cc2cc(C(=O)CCN3CCN(Cc4ccccc4)CC3)ccc2CCc2ccccc21 [17-10] | 96.8 nM |  | 
10 | O=C(CCN1CCN(Cc2ccccc2)CC1)c1ccc2c(c1)C1CCCCC1N2 (stereo not drawn) [19-1] |  | 328 nM | 1670 nM
11 | CCC(=O)N1CC2CCCc3c(C(=O)CCC4CCN(Cc5ccccc5)CC4)ccc1c32 (stereo not drawn) [20-1] | 182 nM |  | 
12 | Cc1cccc(CN2CCN(CCC(=O)c3cc4c5c(c3)CC(=O)N5CCC4)CC2)c1 [30-1] | 28.7 nM | 4600 nM | 95.6 nM
13 | O=C(CCN1CCN(Cc2ccccc2Cl)CC1)c1cc2c3c(c1)CC(=O)N3CCC2 [30-3] | 10.9 nM |  | 
14 | O=C(CCN1CCN(Cc2cccc(Cl)c2)CC1)c1cc2c3c(c1)CC(=O)N3CCC2 [30-4] | 43 nM |  | 
15 | CCc1ccccc1CN1CCN(CCC(=O)c2cc3c4c(c2)CC(=O)N4CCC3)CC1 [30-6] |  | 5960 nM | 86.3 nM
16 | Cc1ccc(CN2CCN(CCC(=O)c3cc4c5c(c3)CC(=O)N5CCC4)CC2)cc1C [30-8] |  | 643 nM | 60.7 nM
17 | O=C(CCN1CCN(Cc2ccccc2F)CC1)c1cc2c3c(c1)CC(=O)N3CCC2 [30-10] | 18.9 nM |  | 
18 | O=C(CCN1CCN(Cc2cccc(F)c2)CC1)c1cc2c3c(c1)CC(=O)N3CCC2 [30-11] | 16.9 nM |  | 
19 | O=C(CCN1CCN(Cc2ccc(F)cc2)CC1)c1cc2c3c(c1)CC(=O)N3CCC2 [30-12] | 23.9 nM |  | 
20 | COc1ccccc1CN1CCN(CCC(=O)c2cc3c4c(c2)CC(=O)N4CCC3)CC1 [30-13] | 130 nM |  | 
21 | O=C(CCN1CCN(Cc2ccccc2O)CC1)c1cc2c3c(c1)CC(=O)N3CCC2 [30-16] | 5.8 nM |  | 
22 | Cc1ccccc1CN1CCN(CCC(=O)c2cc3c4c(c2)CCN4C(=O)CC3)CC1 [30-18] | 24.9 nM |  | 
23 | Cc1cccc(CN2CCN(CCC(=O)c3cc4c5c(c3)CCN5C(=O)CC4)CC2)c1 [30-19] | 11.9 nM | 2820 nM | 66 nM

Row | SMILES | IC50 (Acetylcholinesterase) | IC50 [1] | IC50 [2]
24 | O=C(CCN1CCN(Cc2ccccc2Cl)CC1)c1cc2c3c(c1)CCN3C(=O)CC2 [30-21] | 3.6 nM | 1540 nM | 88.2 nM
25 | O=C(CCN1CCN(Cc2cccc(Cl)c2)CC1)c1cc2c3c(c1)CCN3C(=O)CC2 [30-22] | 6.2 nM | 795 nM | 60.1 nM
26 | O=C(CCN1CCN(Cc2ccccc2F)CC1)c1cc2c3c(c1)CCN3C(=O)CC2 [30-24] | 1.5 nM |  | 
27 | O=C(CCN1CCN(Cc2cccc(F)c2)CC1)c1cc2c3c(c1)CCN3C(=O)CC2 [30-25] | 0.098 nM | 1310 nM | 11.7 nM
28 | O=C(CCN1CCN(Cc2ccc(F)cc2)CC1)c1cc2c3c(c1)CCN3C(=O)CC2 [30-26] | 4.4 nM |  | 
29 | Cc1ccc(C)c(CN2CCN(CCC(=O)c3cc4c5c(c3)CCN5C(=O)CC4)CC2)c1 [30-27] | 188 nM | 559 nM | 79.8 nM
30 | Cc1ccc(CN2CCN(CCC(=O)c3cc4c5c(c3)CCN5C(=O)CC4)CC2)cc1C [30-28] |  | 2810 nM | 61.5 nM
31 | O=C(CCN1CCN(Cc2cccc([N+](=O)[O-])c2)CC1)c1cc2c3c(c1)CCN3C(=O)CC2 [30-29] | 29.3 nM |  | 
32 | COc1ccccc1CN1CCN(CCC(=O)c2cc3c4c(c2)CCN4C(=O)CC3)CC1 [30-32] | 91.1 nM |  | 
33 | O=C(CCC1CCN(Cc2ccccc2)CC1)c1cc2c3c(c1)CC(=O)N3CCC2 [30-34] | 0.5 nM |  | 
34 | O=C(CCN1CCN(Cc2cccc([N+](=O)[O-])c2)CC1)c1cc2c3c(c1)CC(=O)N3CCC2 [30-35] | 67.9 nM |  | 
35 | O=C(CCN1CCN(Cc2ccc([N+](=O)[O-])cc2)CC1)c1cc2c3c(c1)CC(=O)N3CCC2 [30-36] |  | 7480 nM | 46.8 nM
36 | O=C(CCC1CCN(Cc2ccccc2)CC1)c1cc2c3c(c1)CCN3C(=O)CC2 [30-38] | 0.18 nM |  | 
37 | O=C(CCC1CCN(Cc2ccccc2F)CC1)c1cc2c3c(c1)CCN3C(=O)CC2 [30-39] | 0.5 nM |  | 
38 | O=C(CCC1CCN(Cc2cccc(F)c2)CC1)c1cc2c3c(c1)CCN3C(=O)CC2 [30-40] | 0.092 nM |  | 
39 | O=C(CCC1CCN(Cc2ccc(F)cc2)CC1)c1cc2c3c(c1)CCN3C(=O)CC2 [30-41] | 0.47 nM |  | 
40 | O=C(CCC1CCN(Cc2ccccc2Cl)CC1)c1cc2c3c(c1)CCN3C(=O)CC2 [30-42] | 0.54 nM |  | 
41 | O=C(CCC1CCN(Cc2cccc(Cl)c2)CC1)c1cc2c3c(c1)CCN3C(=O)CC2 [30-43] | 0.065 nM |  | 
42 | O=C(CCC1CCN(Cc2ccc(Cl)cc2)CC1)c1cc2c3c(c1)CCN3C(=O)CC2 [30-44] | 59.9 nM |  | 
43 | Cc1ccccc1CN1CCC(CCC(=O)c2cc3c4c(c2)CCN4C(=O)CC3)CC1 [30-45] | 0.304 nM |  | 
44 | Cc1cccc(CN2CCC(CCC(=O)c3cc4c5c(c3)CCN5C(=O)CC4)CC2)c1 [30-46] | 0.2 nM |  | 
45 | Cc1ccc(CN2CCC(CCC(=O)c3cc4c5c(c3)CCN5C(=O)CC4)CC2)cc1 [30-47] | 19.5 nM |  | 
46 | COc1ccccc1CN1CCC(CCC(=O)c2cc3c4c(c2)CCN4C(=O)CC3)CC1 [30-48] | 17.1 nM |  | 

Row | SMILES | IC50 (Acetylcholinesterase) | IC50 [1] | IC50 [2]
47 | O=C(CCC1CCN(Cc2cccc([N+](=O)[O-])c2)CC1)c1cc2c3c(c1)CCN3C(=O)CC2 [30-52] | 0.36 nM |  | 
48 | O=C(CCC1CCN(Cc2ccc([N+](=O)[O-])cc2)CC1)c1cc2c3c(c1)CCN3C(=O)CC2 [30-53] | 25.4 nM |  | 
49 | Cc1ccc(CN2CCC(CCC(=O)c3cc4c5c(c3)CCN5C(=O)CC4)CC2)c(C)c1 [30-54] | 60.9 nM |  | 
50 | Cc1ccc(C)c(CN2CCC(CCC(=O)c3cc4c5c(c3)CCN5C(=O)CC4)CC2)c1 [30-56] | 18.3 nM |  | 
51 | O=C(CCC1CCN(Cc2ccccc2O)CC1)c1cc2c3c(c1)CCN3C(=O)CC2 [30-58] | 0.12 nM |  | 
52 | O=C(CCC1CCN(Cc2cccc(O)c2)CC1)c1cc2c3c(c1)CCN3C(=O)CC2 [30-59] | 1.12 nM |  | 
53 | O=C(CCC1CCN(Cc2ccc(O)cc2)CC1)c1cc2c3c(c1)CCN3C(=O)CC2 [30-60] | 0.078 nM |  | 
54 | N#Cc1ccccc1CN1CCC(CCC(=O)c2cc3c4c(c2)CCN4C(=O)CC3)CC1 [30-61] | 15.6 nM |  | 
55 | O=C(CCN1CCN(Cc2ccc3c(c2)OCO3)CC1)c1cc2c3c(c1)CC(=O)N3CCC2 [31-1] |  | 6180 nM | 46.3 nM
56 | O=C(CCN1CCC(Cc2ccccc2)CC1)c1cc2c3c(c1)CC(=O)N3CCC2 [31-2] |  | 73.8 nM | 8.79 nM
57 | O=CN1Cc2ccccc2-c2ccc(C(=O)CCN3CCC(Cc4ccccc4)CC3)cc2C1 [31-11] |  | 515 nM | 69.5 nM
58 | O=C(CCN1CCN(Cc2ccccc2)CC1)c1ccc2c(c1)CNc1ccccc1C2 [32-2] | 115 nM |  | 
59 | O=C(CCN1CCN(Cc2ccccc2)CC1)c1ccc2c(c1)CNc1ccccc1O2 [32-3] | 59 nM |  | 
60 | O=C(CCN1CCN(Cc2ccccc2)CC1)c1ccc2c(c1)CN(Cc1ccccc1)Cc1ccccc1-2 [34-1] | 39.3 nM |  | 
61 | COc1ccc(CN2Cc3ccccc3-c3ccc(C(=O)CCN4CCN(Cc5ccccc5)CC4)cc3C2)cc1 [34-2] | 20 nM |  | 
62 | CC(=O)N1Cc2ccccc2-c2ccc(C(=O)CCN3CCN(Cc4ccccc4)CC3)cc2C1 [34-3] | 171 nM |  | 
63 | O=C(CCN1CCN(Cc2ccccc2)CC1)c1ccc2c(c1)CN(C(=O)c1ccccc1)Cc1ccccc1-2 [34-4] |  | 456 nM | 969 nM
64 | COc1ccc(C(=O)N2Cc3ccccc3-c3ccc(C(=O)CCN4CCN(Cc5ccccc5)CC4)cc3C2)cc1 [34-5] | 31.6 nM |  | 
65 | O=C(CCN1CCC(Cc2ccccc2)CC1)c1ccc2c(c1)CN(C(=O)c1ccccc1)Cc1ccccc1-2 [34-8] |  | 197 nM | 363 nM
66 | O=C(CCC1CCN(Cc2ccccc2)CC1)c1ccc2c3c(cccc13)CN(Cc1ccccc1)C2 [37-2] | 184 nM |  | 
67 | CN1c2ccc(C(=O)CCC3CCN(Cc4ccccc4)CC3)cc2C2CCCCC21 (stereo not drawn) [37-4] | 136 nM |  | 
68 | CN(C)CCCN1c2ccccc2CCc2ccccc21 [Imipramine, reference compound] |  | 1120 nM | 63 nM
69 | O=C(CCN1CCN(Cc2ccccc2)CC1)c1ccc2c3c1CCCC3CN2 (stereo not drawn) [compound 2, 1-(1,2,2a,3,4,5-Hexahydrobenz[cd]indol-6-yl)-3-[1-(phenylmethyl)piperazin-4-yl]-1-propanone trihydrochloride] |  | 420 nM | 594 nM

Reference: patent US5686466A, “Tricyclic condensed heterocyclic compounds their production and use” (priority 1993, dated 1997)
